Laboratory results from patent US10023592B2, “Bromodomain inhibitors” (Celgene Quanticel Research, Inc., priority 2013, dated 2018).
Structures can show the parent of a compound that is named as a salt.

Each molecule was assayed against BRD4(BD1) (Homo sapiens (Human), UniProt O60885) (assay: In vitro enzyme inhibition assay (BRD4 AlphaScreen)). Conditions: class symbols A/B/C.
Format: binding
Procedure: His-tagged BRD4 was cloned, expressed and purified to homogeneity. […] BRD4 binding and inhibition was assessed by monitoring the interaction of biotinylated H4-tetraacetyl peptide (AnaSpec, H4K5/8/12/16(Ac), biotin-labeled) with the target using the AlphaScreen technology (Life Technologies). […] After 20 min incubation at room temp, Alpha streptavidin donor beads and Nickel Chelate acceptor beads were added to a final concentration of 5 μg/mL.
The ability of the compounds disclosed herein to inhibit BRD4 activity was quantified and the respective IC50 value was determined.

Row | IC50 | Compound
1 | 500 to 5000 nM | COc1ccc(-c2cc(NCC3CC3)c(=O)n(C)c2)cc1NS(C)(=O)=O [Example 112, N-[5-[5-(cyclopropylmethylamino)-1-methyl-6-oxopyridin-3-yl]-2-methoxyphenyl]methanesulfonamide]
2 | 500 to 5000 nM | Cn1cc(-c2cccc(NS(C)(=O)=O)c2)c2cnccc2c1=O [Example 125, N-[3-(2-methyl-1-oxo-2,6-naphthyridin-4-yl)phenyl] methanesulfonamide]
3 | 500 to 5000 nM | COc1ccc(-c2cn(C)c(=O)c3cc(F)ccc23)cc1S(N)(=O)=O [Example 64, 5-(7-fluoro-2-methyl-1-oxoisoquinolin-4-yl)-2-methoxybenzenesulfonamide]
4 | > 5000 nM | CCS(=O)(=O)c1cccc(-c2cn(C)c(=O)c3ccncc23)c1 [Example 126, 4-(3-ethylsulfonylphenyl)-2-methyl-2,6-naphthyridin-1-one]
5 | > 5000 nM | Cn1cc(-c2cccc(S(C)(=O)=O)c2)cc(N)c1=O [Example 107, 3-amino-1-methyl-5-(3-methylsulfonylphenyl)pyridin-2-one]
6 | > 5000 nM | Cn1cc(-c2ccn[nH]2)c2ccccc2c1=O [Example 68, 2-methyl-4-(1H-pyrazol-5-yl)isoquinolin-1-one]
7 | 500 to 5000 nM | Cn1cc(-c2ccc3c(c2)NCCO3)c2ccccc2c1=O [Example 19, 4-(3,4-dihydro-2H-1,4-benzoxazin-6-yl)-2-methylisoquinolin-1-one]
8 | > 5000 nM | COc1ccccc1-c1cn(C)c(=O)c2ccccc12 [Example 4, 4-(2-methoxyphenyl)-2-methylisoquinolin-1-one]

Row | Compound | IC50
9 | COc1ccc(-c2cn(C)c(=O)c3ccccc23)cc1S(N)(=O)=O [Example 16, 2-methoxy-5-(2-methyl-1-oxoisoquinolin-4-yl) benzenesulfonamide] | 500 to 5000 nM
10 | Cn1cc(-c2cc(N)ccc2F)c2ccccc2c1=O [Example 23, 4-(5-amino-2-fluorophenyl)-2-methylisoquinolin-1-one hydrochloride] | 500 to 5000 nM
11 | Cn1cc(-c2cccc(S(=O)(=O)N3CCOCC3)c2)c2ccccc2c1=O [Example 14, 2-methyl-4-(3-morpholin-4-yl-sulfonylphenyl) isoquinolin-1-one] | 500 to 5000 nM

Same assay, conditions: in vitro enzyme inhibition assay

Row | IC50 | Compound
12 | < 500 nM | Cn1cc(-c2cc(S(C)(=O)=O)ccc2OCC2CCC2)ccc1=O [Example 460, 5-[2-(cyclobutylmethoxy)-5-methylsulfonylphenyl]-1-methylpyridin-2-one]
13 | < 500 nM | Cn1cc(-c2cc(CS(C)(=O)=O)ccc2OCC(F)(F)F)cc(F)c1=O [Example 421, 3-fluoro-1-methyl-5-[5-(methylsulfonylmethyl)-2-(2,2,2-trifluoroethoxy)phenyl]pyridin-2-one]
14 | > 5000 nM | Cn1cc(-c2cccc(NS(C)(=O)=O)c2)cc(OCc2ccccc2)c1=O [Example 471, N-[3-(1-methyl-6-oxo-5-phenylmethoxypyridin-3-yl)phenyl]methanesulfonamide]
15 | < 500 nM | CCCCc1cnc(S(C)(=O)=O)nc1-c1cc(C)c(=O)n(C(C)C)c1 [Example 508, 5-(5-butyl-2-methylsulfonylpyrimidin-4-yl)-3-methyl-1-propan-2-ylpyridin-2-one]
16 | < 500 nM | Cc1cc(-c2cc(CS(C)(=O)=O)ccc2Oc2ccc(F)cc2F)cn(CCO)c1=O [Example 406, 5-[2-(2,4-difluorophenoxy)-5-(methylsulfonylmethyl)phenyl]-1-(2-hydroxyethyl)-3-methylpyridin-2-one]
17 | < 500 nM | CCS(=O)(=O)Nc1ccc(Oc2ccc(F)cc2F)c(-c2cc(NC)c(=O)n(C)c2)c1 [Example 410, N-[4-(2,4-difluorophenoxy)-3-[1-methyl-5-(methylamino)-6-oxopyridin-3-yl]phenyl]ethanesulfonamide]
18 | < 500 nM | CCS(=O)(=O)c1ccc(NCC2CC2)c(-c2cc(NC)c(=O)n(C)c2)c1 [Example 408, 5-[2-(cyclopropylmethylamino)-5-ethylsulfonylphenyl]-1-methyl-3-(methylamino)pyridin-2-one]
19 | < 500 nM | CCS(=O)(=O)Nc1ncc(Oc2ccc(F)cc2F)c(-c2cc(C(C)C)c(=O)n(C)c2)n1 [Example 514, N-[5-(2,4-difluorophenoxy)-4-(1-methyl-6-oxo-5-propan-2-ylpyridin-3-yl)pyrimidin-2-yl]ethanesulfonamide]
20 | < 500 nM | CCS(=O)(=O)c1ccc(NCC2CC2)c(-c2cc(OC)c(=O)n(C)c2)c1 [Example 414, 5-[2-(cyclopropylmethylamino)-5-ethylsulfonylphenyl]-3-methoxy-1-methylpyridin-2-one]
21 | < 500 nM | CCCCc1cnc(S(C)(=O)=O)nc1-c1cc(C(C)C)c(=O)n(C)c1 [Example 513, 5-(5-butyl-2-methylsulfonylpyrimidin-4-yl)-1-methyl-3-propan-2-ylpyridin-2-one]
22 | 500 to 5000 nM | CCS(=O)(=O)Nc1cccc(-c2cc(C)c(=O)n(C)n2)c1 [Example 480, N-[3-(1,5-dimethyl-6-oxopyridazin-3-yl)phenyl]ethanesulfonamide]
23 | < 500 nM | Cn1cc(-c2cc(S(C)(=O)=O)cc3c2OC(C2CC2)C3)c2ccccc2c1=O (stereo not drawn) [Example 493, 4-(2-cyclopropyl-5-methylsulfonyl-2,3-dihydro-1-benzofuran-7-yl)-2-methylisoquinolin-1-one]
24 | 500 to 5000 nM | COc1cc(F)c(CS(C)(=O)=O)cc1-c1ccc(=O)n(C)c1 [Example 475, 5-[4-fluoro-2-methoxy-5-(methylsulfonylmethyl)phenyl]-1-methylpyridin-2-one]

Second part, the molecule before the results:

Row | Compound | IC50
25 | Cc1cc(-c2cc(S(C)(=O)=O)ccc2OCCC(F)(F)F)cn(C)c1=O [Example 405, 1,3-dimethyl-5-[5-methylsulfonyl-2-(3,3,3-trifluoropropoxy)phenyl]pyridin-2-one] | < 500 nM
26 | CCCc1cnc(NS(=O)(=O)CC)nc1-c1cc(Cl)c(=O)n(C)c1 [Example 359, N-[4-(5-chloro-1-methyl-6-oxopyridin-3-yl)-5-propylpyrimidin-2-yl]ethanesulfonamide] | < 500 nM
27 | CCCc1cnc(NS(=O)(=O)CC)nc1-c1ccc(=O)n(C)c1 [Example 357, N-[4-(1-methyl-6-oxopyridin-3-yl)-5-propylpyrimidin-2-yl]ethanesulfonamide] | < 500 nM
28 | Cc1cc(-c2cc(OCc3ccccn3)cc(S(C)(=O)=O)c2)cn(C)c1=O [Example 330, 1,3-dimethyl-5-[3-methylsulfonyl-5-(pyridin-2-ylmethoxy)phenyl]pyridin-2-one] | < 500 nM
29 | COc1ccc2c(=O)n(C)cc(-c3cc(S(=O)(=O)C(C)C)ccc3OCC3CC3)c2c1 [Example 393, 4-[2-(cyclopropylmethoxy)-5-propan-2-ylsulfonylphenyl]-6-methoxy-2-methylisoquinolin-1-one] | < 500 nM
30 | CCCCc1ccc(S(C)(=O)=O)cc1-c1ccc(=O)n(C)c1 [Example 317, 5-(2-butyl-5-methylsulfonylphenyl)-1-methylpyridin-2-one] | < 500 nM
31 | Cn1cc(-c2cc(CS(C)(=O)=O)ccc2OCC(F)(F)F)c2ocnc2c1=O [Example 239, 5-methyl-7-[5-(methylsulfonylmethyl)-2-(2,2,2-trifluoroethoxy)phenyl]-[1,3]oxazolo[4,5-c]pyridin-4-one] | < 500 nM
32 | Cc1cc(-c2cc(OCC(F)(F)F)cc(S(C)(=O)=O)c2)cn(C)c1=O [Example 328, 1,3-dimethyl-5-[3-methylsulfonyl-5-(2,2,2-trifluoroethoxy)phenyl]pyridin-2-one] | < 500 nM
33 | [2H]C([2H])([2H])n1cc(-c2cc(S(=O)(=O)CC)ccc2OCC)c(C)cc1=O [Example 456, 5-(2-ethoxy-5-ethylsulfonylphenyl)-1-(^2H3)methyl-4-methylpyridin-2-one] | < 500 nM
34 | CCCc1ccc(S(C)(=O)=O)cc1-c1cn(C)c(=O)c2ccccc12 [Example 314, 2-methyl-4-(5-methylsulfonyl-2-propylphenyl)isoquinolin-1-one] | < 500 nM
35 | CCS(=O)(=O)Nc1cc(-c2cc(C)c(=O)n(C)c2)nc(Oc2ccc(F)cc2F)n1 [Example 347, N-[2-(2,4-difluorophenoxy)-6-(1,5-dimethyl-6-oxopyridin-3-yl)pyrimidin-4-yl]ethanesulfonamide] | 500 to 5000 nM
36 | CC#CCOc1cc(-c2cc(C)c(=O)n(C)c2)cc(S(C)(=O)=O)c1 [Example 340, 5-(3-but-2-ynoxy-5-methylsulfonylphenyl)-1,3-dimethylpyridin-2-one] | < 500 nM
37 | Cn1cc(-c2cc(S(C)(=O)=O)ccc2CCC2CC2)c2ccccc2c1=O [Example 319, 4-[2-(2-cyclopropylethyl)-5-methylsulfonylphenyl]-2-methylisoquinolin-1-one] | < 500 nM
38 | Cc1cc(-c2cc(OCc3cccc(C#N)c3)cc(S(C)(=O)=O)c2)cn(C)c1=O [Example 339, 3-[[3-(1,5-dimethyl-6-oxopyridin-3-yl)-5-methylsulfonylphenoxy]methyl]benzonitrile] | < 500 nM
39 | Cn1cc(-c2cc(S(C)(=O)=O)ccc2CCC2CC2)ccc1=O [Example 315, 5-[2-(2-cyclopropylethyl)-5-methylsulfonylphenyl]-1-methylpyridin-2-one] | < 500 nM
40 | CCS(=O)(=O)c1ccc(Oc2ccc(F)cc2F)c(-c2cc(C(F)(F)F)c(=O)n(C)c2)c1 [Example 392, 5-[2-(2,4-difluorophenoxy)-5-ethylsulfonylphenyl]-1-methyl-3-(trifluoromethyl)pyridin-2-one] | 500 to 5000 nM
41 | Cn1cc(-c2cc(OCc3ccccc3)cc(S(C)(=O)=O)c2)c2ccccc2c1=O [Example 344, 2-methyl-4-(3-methylsulfonyl-5-phenylmethoxyphenyl)isoquinolin-1-one] | < 500 nM
42 | CCS(=O)(=O)c1ccc(Oc2ccc(F)cc2F)c(-c2cn(C)c(=O)c3cncnc23)c1 [Example 234, 8-[2-(2,4-difluorophenoxy)-5-ethylsulfonylphenyl]-6-methylpyrido[4,3-d]pyrimidin-5-one] | 500 to 5000 nM
